In brackets after ≈: the same amount, converted by molar mass. Like-named read-outs stand apart in the source and are kept apart here. Positions of bridges follow the written chain, without caps; N, C: chain ends. Non-standard residues stand in square brackets, D forms with d. Residues, ends and D or L forms follow the SMILES beside them. *: point of attachment. Cholyl = C[C@H](CCC(=O)*)[C@H]1CC[C@H]2[C@@H]3[C@H](O)C[C@@H]4C[C@H](O)CC[C@]4(C)[C@H]3C[C@H](O)[C@]12C; Decanoyl(3R-OH) = CCCCCCC[C@@H](O)CC(=O)*; X1 = CCCCCCCN1CCC(C(=O)*)CC1; dDab = NCC[C@@H](N)C(=O)O; Dab = NCC[C@H](N)C(=O)O; Dap = NC[C@H](N)C(=O)O
Tests used:
A. baumannii ATCC 19606 = details: ATCC 19606
In short: (§1)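 Mid-log cultures grown in Mueller Hinton broth at 37° C were tested by 2-fold broth microdilution at 5×10^5 CFU/mL final. Compounds were dissolved in water and tested over a final range of 32 to 0.015 μg/mL.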

A. baumannii GN_093 PmxR = details: GN 093 PmxR
In short: as §1

E. coli ATCC 25922 = details: ATCC 25922
In short: as §1

K. pneumoniae ATCC 13883 = details: ATCC 13883
In short: as §1

[1] = test system: K. pneumoniae ATCC 700603, MDR; details: ATCC 700603
In short: as §1

[2] = test system: K. pneumoniae ATCC BAA-2146, NDM-1 pos; details: ATCC BAA-2146
In short: as §1

[3] = test system: K. pneumoniae GN_102 PmxR; details: GN 102 PmxR
In short: as §1

[4] = test system: K. pneumoniae GN_106, PmxR; details: GN 106, PmxR
In short: as §1

P. aeruginosa ATCC 27853 = details: ATCC 27853
In short: as §1

[5] = test system: P. aeruginosa GN_043, PmxR
In short: as §1

[6] = test system: P. aeruginosa GN_105, PmxR; details: GN 105, PmxR
In short: as §1

[7] = test system: S. aureus ATCC 25923, MSSA; details: ATCC 25923
In short: as §1

in vitro [8] = details: human
In short: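 Viability is measured by resazurin reduction (5 μM, 2 h, 37 °C) after cells seeded at 4000 per well are treated with compound for 24 h.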

in vitro [9] = details: human; remark: listed apart in the source
In short: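 HK2 cells were seeded at 2000 per well in DMEM/F12 with 10% FBS and left to attach for 24 h at 37 °C, 5% CO2. They were then exposed for 24 h to 3-fold peptide dilutions starting from 600 μM solutions in quadruplicate. LDH release was read at 450 nm, and CC50 was fitted from dose-response curves.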

in vitro [10] = details: human; remark: listed apart in the source
Procedure: Cytotoxicity of the synthesised peptides was evaluated by comparison with commercially available colistin (polymyxin E), polymyxin B (Sigma chemical Co., St. Louis, Mo., U.S.A.) and synthetic octapeptin C4 by conducting lactate dehydrogenase (LDH) assay. CC50 values calculated based on curve fitting of dose dependent inhibition of cell growth represented the cytotoxicity of the peptide. Human kidney 2 (HK2) cells were seeded as 2000 cells per well in a 384 well cell culture plate in a final volume of 20 μL in DMEM/F12 medium (Invitrogen #11330057), in which 10% of FBS was added. Cells were incubated for 24 hours at 37° C., 5% CO2 to allow cells to attach to the plates. Similar conditions were employed for HEK293 and HepG2 cytotoxicity assays.
Cytotoxicity to HEK293 and HepG2 cells was determined using the resazurin assay (McMillian, M. K.; Li, L.; Parker, J. B.; Patel, L.; Zhong, Z.; Gunnett, J. W.; Powers, W. J.; Johnson, M. D. An improved resazurin-based cytotoxicity assay for hepatic cells; Cell Biol. Toxicol. 2002, 18, 157-173; O'Brien, J.; Wilson, I.; Orton, T.; Pognan, F. Investigation of the Alamar Blue (resazurin) fluorescent dye for the assessment of mammalian cell cytotoxicity. Eur. J. Biochem. 2000, 267, 5421-5426). In brief, HEK293 and HepG2 cells were seeded at 4000 cells/well in black-wall, clear-bottom 384-well plates (Corning, Australia) and incubated for 24 h at 37° C., 5% CO2. Compounds were then added into each well. After 24 h incubation, 5 μM resazurin was added per well and incubated at 37° C. for 2 h. Fluorescence intensity was then read using a Polarstar Omega with excitation/emission 560/590. The data was then analyzed using GraphPad Prism 6 software. CC50 values were determined using GraphPad Prism 6 software (Inc. La Jolla, Calif.).

| Structure (SMILES) | MIC A. baumannii ATCC 19606 (A. baumannii ATCC 19606) [µg/mL] | MIC A. baumannii GN_093 PmxR (A. baumannii GN_093 PmxR) [µg/mL] | MIC E. coli ATCC 25922 (E. coli ATCC 25922) [µg/mL] | MIC K. pneumoniae ATCC 13883 (K. pneumoniae ATCC 13883) [µg/mL] | MIC K. pneumoniae ATCC 700603, MDR [1] [µg/mL] | MIC K. pneumoniae ATCC BAA-2146, NDM-1 pos [2] [µg/mL] | MIC K. pneumoniae GN_102 PmxR [3] [µg/mL] | MIC K. pneumoniae GN_106, PmxR [4] [µg/mL] | MIC P. aeruginosa ATCC 27853 (P. aeruginosa ATCC 27853) [µg/mL] | MIC P. aeruginosa GN_043, PmxR ([5]; P. aeruginosa GN_043, PmxR) [µg/mL] | MIC P. aeruginosa GN_105, PmxR [6] [µg/mL] | MIC S. aureus ATCC 25923, MSSA [7] [µg/mL] | CC50 at 24 h (in vitro [8]) [µM] | CC50 at 24 h (in vitro [9]) [µM] | CC50 at 24 h (in vitro [10]) [µM] | MIC P. aeruginosa GN_043, PmxR [5] [µg/mL] |
| --- | --- | --- | --- | --- | --- | --- | --- | --- | --- | --- | --- | --- | --- | --- | --- | --- |
| CCCCCCC[C@@H](O)CC(=O)N[C@H](CCN)C(=O)N[C@H]1CNC(=O)[C@H](CC(C)C)NC(=O)[C@H](CCN)NC(=O)[C@H](CCN)NC(=O)[C@H](CC(C)C)NC(=O)[C@@H](CC(C)C)NC(=O)[C@H](CCN)NC1=O [compound 633, 3(R)OH-nC9CO-D-Dab-cyc[L-Dap-L-Dab-D-Leu-L-Leu-L-Dab-L-Dab-L-Leu]] ({Decanoyl(3R-OH)}-[dDab][Dap][Dab][dL]L[Dab][Dab]L; lactam 2-C) | >32 | >32 | 16 (≈ 16.1 µM) | >32 | 32 (≈ 32.1 µM) | 8 (≈ 8.03 µM) | >32 | >32 | 1 (≈ 1 µM) | 16 (≈ 16.1 µM) | >32 | >32 | > 300 | 104 | > 300 |  |
| CCCCCCC[C@@H](O)CC(=O)N[C@H](CCN)C(=O)N[C@H]1CCNC(=O)[C@H](CC(C)C)NC(=O)[C@H](CCN)NC(=O)[C@H](CCN)NC(=O)[C@H](CC(C)C)NC(=O)[C@@H](Cc2ccc(O)cc2)NC(=O)[C@H](CCN)NC1=O [compound 5008, 3(R)OH-nC9CO-D-Dab-cyc[L-Dab-L-Dab-D-Tyr-L-Leu-L-Dab-L-Dab-L-Leu]] ({Decanoyl(3R-OH)}-[dDab][Dab][Dab][dY]L[Dab][Dab]L; lactam 2-C) | 32 (≈ 30.2 µM) | 32 (≈ 30.2 µM) | 8 (≈ 7.54 µM) | 16 (≈ 15.1 µM) | 8 (≈ 7.54 µM) | 16 (≈ 15.1 µM) | 16 (≈ 15.1 µM) | 16 (≈ 15.1 µM) | 1 (≈ 0.943 µM) | 2 (≈ 1.89 µM) | 16 (≈ 15.1 µM) | 32 (≈ 30.2 µM) | > 300 | 106 | > 300 |  |
| CC(C)C[C@@H]1NC(=O)[C@H](CCN)NC(=O)[C@H](CCN)NC(=O)[C@H](CC(C)C)NC(=O)[C@@H](Cc2ccccc2)NC(=O)[C@H](CCN)NC(=O)[C@@H](NC(=O)[C@@H](CCN)NC(=O)CC[C@@H](C)[C@H]2CC[C@H]3[C@@H]4[C@H](O)C[C@@H]5C[C@H](O)CC[C@]5(C)[C@H]4C[C@H](O)[C@]23C)CCNC1=O [compound 5016, cholic acid-D-Dab-cyc[L-Dab-L-Dab-D-Phe-L-Leu-L-Dab-L-Dab-L-Leu]] (Cholyl-[dDab][Dab][Dab][dF]L[Dab][Dab]L; lactam 2-C) | 16 (≈ 12.7 µM) | 8 (≈ 6.33 µM) | 8 (≈ 6.33 µM) | 4 (≈ 3.16 µM) | 4 (≈ 3.16 µM) | 8 (≈ 6.33 µM) | 8 (≈ 6.33 µM) | 16 (≈ 12.7 µM) | 4 (≈ 3.16 µM) |  | 4 (≈ 3.16 µM) | 32 (≈ 25.3 µM) | 48 | 17 | 46 | 4 (≈ 3.16 µM) |
| CCCCCCC[C@@H](O)CC(=O)N[C@@H](CCN)C(=O)N[C@H]1CCNC(=O)[C@H](CC(C)C)NC(=O)[C@H](CCN)NC(=O)[C@H](CCN)NC(=O)[C@H](C)NC(=O)[C@@H](Cc2ccccc2)NC(=O)[C@H](CCN)NC1=O [compound 5563, 3(R)OH-nC9CO-L-Dab-cyc[L-Dab-L-Dab-D-Phe-L-Ala-L-Dab-L-Dab-L-Leu]] ({Decanoyl(3R-OH)}-[Dab][Dab][Dab][dF]A[Dab][Dab]L; lactam 2-C) | >32 | >32 | 32 (≈ 31.9 µM) | >32 | 16 (≈ 16 µM) | 16 (≈ 16 µM) | 32 (≈ 31.9 µM) | 32 (≈ 31.9 µM) | 2 (≈ 2 µM) | >32 | 32 (≈ 31.9 µM) | >32 | > 300 | 158 | > 300 |  |
| CCCCCCCN1CCC(C(=O)N[C@H](CCN)C(=O)N[C@H]2CCNC(=O)[C@H](CC(C)C)NC(=O)[C@H](CCN)NC(=O)[C@H](CCN)NC(=O)[C@H](Cc3ccccc3)NC(=O)[C@@H](CC(C)C)NC(=O)[C@H](CCN)NC2=O)CC1 [compound 6516, 1-heptylpiperidine-4-carboxylic acid-D-Dab-cyc[L-Dab-L-Dab-D-Leu-L-Phe-L-Dab-L-Dab-L-Leu]] (X1-[dDab][Dab][Dab][dL]F[Dab][Dab]L; lactam 2-C) | >32 |  | 16 (≈ 14.8 µM) | >32 | >32 | 32 (≈ 29.5 µM) |  |  | 1 (≈ 0.923 µM) | 0.5 (≈ 0.461 µM) | 2 (≈ 1.85 µM) | 32 (≈ 29.5 µM) | > 300 | 223 | > 300 |  |

Source: patent publication US11279733B2, “Peptide antibiotics” (priority 2017, dated 2022)
